The results in this text go back to ChEMBL document CHEMBL1151012, “Synthesis and anti-pseudomonal activity of new 2-isocephems with a dihydroxypyridone moiety at C-7” (1994).

Structures are written as SMILES. ≈ marks a conversion by molar mass, not a printed value.

Assay [1] concerns Pseudomonas aeruginosa. In words: In vitro antibacterial activity against Pseudomonas aeruginosa NCTC-10490 bacteria was determined. It counts as functional.
For assay [2], the species on record is Mus musculus. As to the kind of experiment: (§1) Protective effect on systemic infection in mice caused by clinically isolated Pseudomonas aeruginosa 58. The assay is classed as functional.
For assay [3], the species on record is Mus musculus. As to the kind of experiment: Protective effect on systemic infection in mice caused by clinically isolated Pseudomonas aeruginosa 67. It counts as functional.
In assay [4] the test system is Pseudomonas aeruginosa. In words: Antibacterial activity against clinically isolated Pseudomonas aeruginosa 67.
The subject of assay [5] is Escherichia coli. In words: In vitro antibacterial activity against Escherichia coli NIH JC-2 bacteria was determined. The assay is classed as functional.
Assay [6] deals with Pseudomonas aeruginosa. In words: In vitro antibacterial activity against Pseudomonas aeruginosa ATCC 10145 bacteria was determined. The assay is classed as functional.
The subject of assay [7] is Klebsiella pneumoniae. In words: In vitro antibacterial activity against Klebsiella pneumoniae NCTC-9632 bacteria was determined. The assay is classed as functional.
Assay [8] concerns Pseudomonas aeruginosa. In words: In vitro antibacterial activity against Pseudomonas aeruginosa 69 was determined. It counts as functional.
Assay [9] relates to Pseudomonas aeruginosa. In words: In vitro antibacterial activity against Pseudomonas aeruginosa 56 was determined. It counts as functional.
The subject of assay [10] is Pseudomonas aeruginosa. As to the kind of experiment: In vitro antibacterial activity against Pseudomonas aeruginosa 59 was determined. The assay is classed as functional.
The test system of assay [11] is Pseudomonas aeruginosa. The description is as §1. The assay is classed as functional.
The subject of assay [12] is Pseudomonas aeruginosa. In words: In vitro antibacterial activity against IPM resistant Pseudomonas aeruginosa 56 was determined. It counts as functional.
Assay [13] relates to Pseudomonas aeruginosa. In words: In vitro antibacterial activity against IPM resistant Pseudomonas aeruginosa 47 was determined. The assay is classed as functional.
Assay [14] relates to Pseudomonas aeruginosa. As to the kind of experiment: In vitro antibacterial activity against AZT resistant Pseudomonas aeruginosa 56 was determined. The assay is classed as functional.
The test system of assay [15] is Pseudomonas aeruginosa. As to the kind of experiment: In vitro antibacterial activity against CAZ resistant Pseudomonas aeruginosa 56 was determined. The assay is classed as functional.
For assay [16], the system named is Pseudomonas aeruginosa. As to the kind of experiment: In vitro antibacterial activity against IPM resistant Pseudomonas aeruginosa 59 was determined. The assay is classed as functional.
Assay [17] has as its system Pseudomonas aeruginosa. As to the kind of experiment: In vitro antibacterial activity against CAZ resistant Pseudomonas aeruginosa 59 was determined. It counts as functional.
Assay [18] has as its system Pseudomonas aeruginosa. In words: In vitro antibacterial activity against CAZ resistant Pseudomonas aeruginosa 47 was determined. The assay is classed as functional.
Assay [19] deals with Pseudomonas aeruginosa. As to the kind of experiment: In vitro antibacterial activity against IPM resistant Pseudomonas aeruginosa 69 was determined. It counts as functional.
Assay [20] relates to Pseudomonas aeruginosa. In words: In vitro antibacterial activity against AZT resistant Pseudomonas aeruginosa 69 was determined. It counts as functional.
The test system of assay [21] is Pseudomonas aeruginosa. In words: In vitro antibacterial activity against Pseudomonas aeruginosa 47 was determined. It counts as functional.
In assay [22] the test system is Pseudomonas aeruginosa. In words: In vitro antibacterial activity against AZT resistant Pseudomonas aeruginosa 47 was determined. It counts as functional.
The test system of assay [23] is Pseudomonas aeruginosa. In words: In vitro antibacterial activity against AZT resistant Pseudomonas aeruginosa 59 was determined. The assay is classed as functional.
Assay [24] has as its system Pseudomonas aeruginosa. As to the kind of experiment: In vitro antibacterial activity against CAZ resistant Pseudomonas aeruginosa 69 was determined. It counts as functional.

For orientation: MIC means the smallest concentration in the dilution series that meets the test's criterion for growth inhibition. A high value points to a need for much substance. A word on the ED50: it is the midpoint of the dose-response relation. Read a low ED50 as an effect at a small dose.

As to `CC(C)(O/N=C(\C(=O)N[C@@H]1C(=O)N2C(C(=O)[O-])=C(C[n+]3ccccc3)CS[C@H]12)c1csc(N)n1)C(=O)O` [CEFTAZIDIME], the MIC in assay [1] is 1.56 µg/mL (≈ 2.85 µM); in assay [2], 3.13 µg/mL (≈ 5.73 µM); in assay [4], 1.56 µg/mL (≈ 2.85 µM); in [5], 0.39 µg/mL (≈ 0.714 µM); in assay [6], 1.56 µg/mL (≈ 2.85 µM); in assay [7] it was 0.05 µg/mL (≈ 0.0915 µM). Besides, the ED50 in assay [2] is 31.7 mg/kg; in [3] it was > 100 mg/kg.
Regarding `Nc1nc(/C(=N/OCc2cc(=O)c(O)cn2O)C(=O)N[C@@H]2C(=O)N3C(C(=O)O)=C(CSc4nnnn4CC(=O)O)SC[C@H]23)cs1` (stereo in doubt), the minimal inhibitory concentration (MIC) is ≤ 0.025 µg/mL in [1], 0.05 µg/mL (≈ 0.0735 µM) in assay [5], ≤ 0.025 µg/mL in [6] and ≤ 0.025 µg/mL in assay [7].
`Nc1nc(/C(=N/OCc2cc(=O)c(O)cn2O)C(=O)N[C@@H]2C(=O)N3C(C(=O)O)=C(CSc4nncs4)SC[C@H]23)cs1` (stereo in doubt): the MIC in assay [1] was ≤ 0.025 µg/mL; in assay [5], 0.2 µg/mL (≈ 0.313 µM); in assay [6] it was 0.1 µg/mL (≈ 0.157 µM); in assay [7] it was ≤ 0.025 µg/mL.
As to `Nc1nc(/C(=N/OCc2cc(=O)c(O)cn2O)C(=O)N[C@@H]2C(=O)N3C(C(=O)O)=C(CSc4cnns4)SC[C@H]23)cs1` (stereo in doubt), the MIC in assay [1] is ≤ 0.025 µg/mL; in assay [5], 0.2 µg/mL (≈ 0.313 µM); in assay [6] it was 0.39 µg/mL (≈ 0.611 µM); in assay [7], 0.1 µg/mL (≈ 0.157 µM).
Turning to `Cc1nc(SCC2=C(C(=O)O)N3C(=O)[C@@H](NC(=O)/C(=N\OCc4cc(=O)c(O)cn4O)c4csc(N)n4)[C@H]3CS2)sc1CC(=O)O`, the MIC was 3.13 µg/mL (≈ 4.41 µM) in [8]; ≤ 0.025 µg/mL in assay [1]; 1.56 µg/mL (≈ 2.2 µM) in assay [9]; 1.56 µg/mL (≈ 2.2 µM) in assay [10]; 0.05 µg/mL (≈ 0.0704 µM) in assay [11]; 25 µg/mL (≈ 35.2 µM) in assay [12]. Moreover, the MIC in assay [13] was determined as 25 µg/mL (≈ 35.2 µM); in assay [14] it was 50 µg/mL (≈ 70.4 µM); in assay [15] it was 12.5 µg/mL (≈ 17.6 µM); in assay [16], 50 µg/mL (≈ 70.4 µM); in assay [17], 50 µg/mL (≈ 70.4 µM); in [18], 50 µg/mL (≈ 70.4 µM). Also, the MIC in [19] was determined as 50 µg/mL (≈ 70.4 µM); in assay [20], 25 µg/mL (≈ 35.2 µM); in [21], 1.56 µg/mL (≈ 2.2 µM); in assay [22], 25 µg/mL (≈ 35.2 µM); in assay [4], 0.1 µg/mL (≈ 0.141 µM); in assay [5] it was 0.1 µg/mL (≈ 0.141 µM). In addition, the MIC is 0.05 µg/mL (≈ 0.0704 µM) in assay [6], 25 µg/mL (≈ 35.2 µM) in [23], 50 µg/mL (≈ 70.4 µM) in assay [24] and 0.05 µg/mL (≈ 0.0704 µM) in assay [7]. Also, the results for the ED50 in assay [2] and in [3] were 3.2 mg/kg and 21.8 mg/kg, respectively.
